Values joined by “and” are separate entries in the source; they are usually repeats but may differ in a detail not shown here. Identical values can stand only once.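 Each compound was tested at five concentrations against cells in 96-well plates for 48 hours. The concentration for 50% growth inhibition is given as GI50. TGI marks complete inhibition of growth.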

The first assay deals with HOP-92 NSCLC. Nature of the assay: NCI tumour cell line growth inhibition, 48 h.
Compound `NC(CSC1c2ccccc2-c2ccccc21)C(=O)O` (configuration not stated) yielded a TGI greater than 100 µM.
For the compound `O=C1c2c(c3c4ccccc4[nH]c3c3ccc4ccccc4c23)C(=O)N1CCN1CCNCC1`, the GI50 was 1.83 µM and the TGI was 4.14 µM.
For the compound `Cc1cc(S(=O)(=O)/N=C(/N)Nc2ccccc2O)c(SCc2ccccc2)cc1Cl`, the GI50 is 15.3 µM and the TGI was determined as 35.6 µM.
For `O=C1CCC(N2Cc3cc(CNC(=O)C(F)(F)c4ccc(Cl)cc4)ccc3C2=O)C(=O)N1` (configuration not stated), in that order: 0.0741 µM and greater than 100 µM.
For the compound `O=C(O)CN1CCN(CC(=O)O)CC(=O)[O][Hg][O]C(=O)C1`, the GI50 was 20.6 µM and the TGI was 37.8 µM.
Consider `CCOC(=O)C1=C(C)N(c2ccc(Cl)cc2)[C@]2(C#N)C(O)=C(Cl)C(Cl)=C(O)[C@]12C#N`, for which the GI50 is 78.2 µM and the TGI is greater than 100 µM.
In the same order, the values of `O=C(OCc1ccc2ccccc2n1)c1cn(C2CC2)c2cc(N3CCN(Cc4ccc5ccccc5n4)CC3)c(F)cc2c1=O` are greater than 100 µM and greater than 100 µM.
On to `O=C(O)c1ccc(C(=O)c2ccccc2)c(C(=O)O)c1`, for which the TGI was greater than 100 µM.

A further assay deals with DU-145 prostate. Nature of the assay: NCI tumour cell line growth inhibition, 48 h.
`O=C1NC(=O)C(N2C(=O)c3ccccc3C2=O)CC1O` (configuration not stated): the GI50 was greater than 100 µM and the TGI was greater than 100 µM.
Turning to `COc1ccc2c(c1)N(CCO)C1=C(C(=O)OC1)C2c1cccc(F)c1` (configuration not stated), the GI50 is 1.24 µM and the TGI is greater than 38.6 µM.
In the case of `C/C(=C\c1ccc2ccccc2c1)[N+](=O)[O-]`, the GI50 is 1.91 µM and the TGI came to 3.54 µM.
On to `C=CC(=O)Nc1cccc(Oc2nc(Nc3ccc(N4CCN(C)CC4)cc3)nc3ccsc23)c1`, for which the GI50 is 2.41 µM and 2.04 µM; the TGI is > 10 µM and 6.24 µM.
Turning to `OCc1ccc(N2CCCC2c2ccccc2)cc1Cl` (configuration not stated), the GI50 is 12.3 µM and the TGI was 30.8 µM.
As for `COC1C=COC2(C)Oc3c(C)c(O)c4c(c3C2=O)/C(=N/C2CCC(O)OC2C)C=C(NC(=O)/C(C)=C\C(=O)C2CC2C(O)C(C)C(O)C(C)C(OC(C)=O)C1C)C4=O` (configuration not stated), the TGI was 7.13 µM.
With `CC(=O)/C=C/c1cn(C(=O)OC(C)(C)C)c2ccc(Br)cc12`, the GI50 is 14.1 µM and the TGI turned out to be 45.1 µM.
For the compound `CCOc1ccccc1C(=O)N1CCN(c2cc(Cl)cc(Cl)c2)CC1`, the GI50 was 0.0468 µM and the TGI turned out to be 14 µM.
With `NC(CSC1c2ccccc2-c2ccccc21)C(=O)O` (configuration not stated), the TGI was greater than 100 µM.
Consider `O=C1c2c(c3c4ccccc4[nH]c3c3ccc4ccccc4c23)C(=O)N1CCN1CCNCC1`, for which the GI50 is 1.73 µM and the TGI turned out to be 3.25 µM.
Take `Cc1cc(S(=O)(=O)/N=C(/N)Nc2ccccc2O)c(SCc2ccccc2)cc1Cl`: the GI50 is 23.9 µM and the TGI was 79.5 µM.
In the same order, the values of `O=C1CCC(N2Cc3cc(CNC(=O)C(F)(F)c4ccc(Cl)cc4)ccc3C2=O)C(=O)N1` (configuration not stated) are greater than 100 µM and greater than 100 µM.
On to `O=C(O)CN1CCN(CC(=O)O)CC(=O)[O][Hg][O]C(=O)C1`, for which the GI50 is 27.8 µM and the TGI was greater than 61.9 µM.
For `CCOC(=O)C1=C(C)N(c2ccc(Cl)cc2)[C@]2(C#N)C(O)=C(Cl)C(Cl)=C(O)[C@]12C#N`, in that order: 0.339 µM and 24.5 µM.
In the same order, the values of `O=C(OCc1ccc2ccccc2n1)c1cn(C2CC2)c2cc(N3CCN(Cc4ccc5ccccc5n4)CC3)c(F)cc2c1=O` are 6.09 µM and greater than 100 µM.
With `O=C(O)c1ccc(C(=O)c2ccccc2)c(C(=O)O)c1`, the TGI is greater than 100 µM.

The subject of a further assay is SNB-75 CNS. Nature of the assay: NCI tumour cell line growth inhibition, 48 h.
As to `O=C1NC(=O)C(N2C(=O)c3ccccc3C2=O)CC1O` (configuration not stated), the GI50 is greater than 100 µM and the TGI was greater than 100 µM.
Take `COc1ccc2c(c1)N(CCO)C1=C(C(=O)OC1)C2c1cccc(F)c1` (configuration not stated): the GI50 is 0.186 µM and the TGI was 13.6 µM.
As for `C/C(=C\c1ccc2ccccc2c1)[N+](=O)[O-]`, the GI50 was 1.84 µM and the TGI turned out to be 4.21 µM.
On to `C=CC(=O)Nc1cccc(Oc2nc(Nc3ccc(N4CCN(C)CC4)cc3)nc3ccsc23)c1`, for which the GI50 is 1.54 µM and 2.1 µM; the TGI was > 10 µM and 10.5 µM.
As for `OCc1ccc(N2CCCC2c2ccccc2)cc1Cl` (configuration not stated), the GI50 is 3.28 µM and the TGI amounted to 29 µM.
`COC1C=COC2(C)Oc3c(C)c(O)c4c(c3C2=O)/C(=N/C2CCC(O)OC2C)C=C(NC(=O)/C(C)=C\C(=O)C2CC2C(O)C(C)C(O)C(C)C(OC(C)=O)C1C)C4=O` (configuration not stated) displayed a TGI of 12.4 µM.
`CC(=O)/C=C/c1cn(C(=O)OC(C)(C)C)c2ccc(Br)cc12`: the GI50 is 14.4 µM and the TGI came out at 39.3 µM.
Turning to `CCOc1ccccc1C(=O)N1CCN(c2cc(Cl)cc(Cl)c2)CC1`, the GI50 is 0.474 µM and the TGI amounted to 14.3 µM.
In turn, `NC(CSC1c2ccccc2-c2ccccc21)C(=O)O` (configuration not stated) registered a TGI greater than 100 µM.
Consider `O=C1c2c(c3c4ccccc4[nH]c3c3ccc4ccccc4c23)C(=O)N1CCN1CCNCC1`, for which the GI50 was 1.47 µM and the TGI is 2.82 µM.
For the compound `Cc1cc(S(=O)(=O)/N=C(/N)Nc2ccccc2O)c(SCc2ccccc2)cc1Cl`, the GI50 was 19.3 µM and the TGI is 39.2 µM.
In the case of `O=C1CCC(N2Cc3cc(CNC(=O)C(F)(F)c4ccc(Cl)cc4)ccc3C2=O)C(=O)N1` (configuration not stated), the GI50 is 0.152 µM and the TGI is greater than 100 µM.
Take `O=C(O)CN1CCN(CC(=O)O)CC(=O)[O][Hg][O]C(=O)C1`: the GI50 is 23.6 µM and the TGI stood at 66.5 µM.
For the compound `CCOC(=O)C1=C(C)N(c2ccc(Cl)cc2)[C@]2(C#N)C(O)=C(Cl)C(Cl)=C(O)[C@]12C#N`, the GI50 was 26.1 µM and the TGI was 83 µM.
Take `O=C(OCc1ccc2ccccc2n1)c1cn(C2CC2)c2cc(N3CCN(Cc4ccc5ccccc5n4)CC3)c(F)cc2c1=O`: the GI50 is 32 µM and the TGI was greater than 66.6 µM.
For the compound `O=C(O)c1ccc(C(=O)c2ccccc2)c(C(=O)O)c1`, the TGI is greater than 100 µM.

The values above are taken from PubChem BioAssay (NCI).
